From patent US10670566B2, “Rapid antimicrobial susceptibility testing using piezoelectric sensor” (Drexel University, priority 2015, dated 2020)
In brackets after ≈: the same amount, converted by molar mass.

How the values were obtained:
[1] = test system: E. coli; test: Antimicrobial susceptibility testing using PZT piezoelectric plate sensor (width mode resonance peak); assay type: cell-based
Description: After the PZT sensor was insulated with MPS and coated with APS, it was immersed in 5 ml of DI water to monitor the stability of width mode frequency peak for more than 30 min. If the peak was symmetric and stable, the sensor could be used for the antimicrobial testing.
E. coli suspension in broth was prepared. The concentration was about 10^9 cells/mi. The following procedure was used to replace the broth with DI water, since the ions in the broth might affect the spectrum of the sensor. The suspension was centrifuged at 3000 rpm/min for 5 min and the supernatant was removed. 5 mL of DI water was then added to the tube and the E. coli was re-suspended in DI water.
For the first a few tests (Tests 1-3), a drop of E. coli suspension (20 μl) was put on the sensor surface. After 10 min, the sensor was washed with 400 ml of DI water in a glass beaker 3 times to remove the unbound bacteria. The sensor was then returned to 5 ml of DI water and its width mode peak was monitored. In Test 4, instead of putting a drop of suspension on the sensor, the sensor was soaked in the E. coli suspension for 10 min. The washing step for Test 4 was the same as mentioned above.
After the sensor with E. coli was monitored for 5-10 min, various amounts of ampicillin were added to the DI water every 5 min to determine whether the antibiotics would have an effect on the frequency peak. For Test 1, 1 mg/ml ampicillin solution was made. Different volumes of the ampicillin solution ([…]) were added to the 5 ml of DI water to make the final concentrations of the ampicillin 1, 2, 4, 8, 16, and 32 μg/ml. In Tests 2-4 20 μl of ampicillin solutions of different concentrations (0.25, 0.25, 0.5, 1, 2, and 4 mg/ml) were added each time to make the final concentration of the ampicillin to 1, 2, 4, 8, 16, and 32 μg/ml.
To characterize the roundness of the peak shape, the raw data was smoothed first (as shown in FIG. 15. The amount of variation of the raw data from the smoothed data was calculated as the standard deviation (SD) of the raw data. The width of the top of the peak could be found when the phase angle was 1 times SD (or 2 times SD) smaller than the maximum phase angle in smoothed data. The more round the peak was, the smaller the width of the top of the peak would be. On the other hand, the more flat the peak was, the larger the width of the top of the top of the peak would be.

[2] = pH of ampicillin solution measured using pH paper; assay type: physicochemical; conditions: 1 mg/ml
[3] = test system: E. coli; conditions: known MIC for the E. coli strain tested; cited from earlier work

SMILES: CC1(C)S[C@@H]2[C@H](NC(=O)[C@H](N)c3ccccc3)C(=O)N2[C@H]1C(=O)O [ampicillin]
- change of SD of peak frequency after adding ampicillin, compared to the SD with E. coli ([1]; Test 1): decreased a lot
- ampicillin concentration at which the SD of the peak frequency reached its minimal point ([1]; Test 1 (results similar in Tests 2 and 3), E. coli on sensor in DI water, ampicillin 1-32 μg/ml added every 5 min): 8 µg/mL
- change of width of the top of the peak after adding ampicillin ([1]; Test 4, different sensor, pH adjusted ampicillin, sensor soaked in E. coli suspension): decreased
- change of width of the top of the peak after adding ampicillin ([1]; Tests 1-3): started to decrease
- pH value of the ampicillin solution [2]: 3
- minimal inhibitory concentration (MIC) [3]: 8 µg/mL (≈ 22.9 µM)
